The subject of this data set is CCRIS mutagenicity, Ames/micronucleus/aberration tests. The data set can be described thus: CCRIS mutagenicity studies. The following applies: Test System: AMES SALMONELLA TYPHIMURIUM
Setting [1] is: Strain/Indicator: TA98, Metabolic Activation: HAMSTER, LIVER, S-9, AROCLOR 1254 (10%), Method: PREINCUBATION
[2] abbreviates: Strain/Indicator: TA98, Metabolic Activation: NONE, Method: PREINCUBATION
Where [3] appears, read: Strain/Indicator: TA98, Metabolic Activation: RAT, LIVER, S-9, AROCLOR 1254 (10%), Method: PREINCUBATION
Setting [4] is: Strain/Indicator: TA98, Metabolic Activation: RAT, LIVER, S-9, KANECHLOR 500, Method: PREINCUBATION
The mark [5] stands for this setting: Strain/Indicator: TA100, Metabolic Activation: RAT, LIVER, S-9, AROCLOR 1254 (10%), Method: PREINCUBATION
The mark [6] stands for this setting: Strain/Indicator: TA100, Metabolic Activation: RAT, LIVER, S-9, AROCLOR 1254, Method: STANDARD PLATE.
Where [7] appears, read: Strain/Indicator: TA1535, Metabolic Activation: HAMSTER, LIVER, S-9, AROCLOR 1254 (10%), Method: PREINCUBATION
Setting [8] is: Strain/Indicator: TA1535, Metabolic Activation: NONE, Method: PREINCUBATION
Setting [9] is: Strain/Indicator: TA1535, Metabolic Activation: RAT, LIVER, S-9, AROCLOR 1254 (10%), Method: PREINCUBATION
[10] abbreviates: Strain/Indicator: TA1537, Metabolic Activation: NONE, Method: PREINCUBATION

Active and inactive are the calls of the source. How the calls were made is not given here.

In the case of `O=C(O)c1ccccc1[N+](=O)[O-]`, the mutagenic call by setting is: (Strain/Indicator: TA97, Metabolic Activation: HAMSTER, LIVER, S-9, AROCLOR 1254 (10%), Method: PREINCUBATION) “inactive; negative”; (Strain/Indicator: TA97, Metabolic Activation: NONE, Method: PREINCUBATION) “inactive; negative”; (Strain/Indicator: TA97, Metabolic Activation: RAT, LIVER, S-9, AROCLOR 1254 (10%), Method: PREINCUBATION) “inactive; negative”; under setting [1], “inactive; negative”; under setting [2], “active; positive”; under setting [3], “inactive; negative”. The mutagenic call is, setting by setting: under setting [4], “active; positive”; (Strain/Indicator: TA100, Metabolic Activation: HAMSTER, LIVER, S-9, AROCLOR 1254 (5 OR 30%), Method: PREINCUBATION) “inactive; negative”; (Strain/Indicator: TA100, Metabolic Activation: HAMSTER, LIVER, S-9, AROCLOR 1254, FLAVIN MONONUCLEOTIDE, Method: PREINCUBATION) “inactive; negative”; (Strain/Indicator: TA100, Metabolic Activation: HAMSTER, LIVER, S-9, AROCLOR 1254, Method: PREINCUBATION) “inactive; negative”; (Strain/Indicator: TA100, Metabolic Activation: RAT, LIVER, S-9, AROCLOR 1254 (5 OR 30%), Method: PREINCUBATION) “inactive; negative”; under setting [5], “inactive; negative”. The mutagenic call by setting is: (Strain/Indicator: TA100, Metabolic Activation: RAT, LIVER, S-9, AROCLOR 1254, FLAVIN MONONUCLEOTIDE, Method: PREINCUBATION) “inactive; negative”; under setting [6], “inactive; negative”; (Strain/Indicator: TA100, Metabolic Activation: RAT, LIVER, S-9, KANECHLOR 500, Method: PREINCUBATION) “active; positive”; under setting [7], “inactive; negative”; under setting [8], “inactive; negative”; under setting [9], “inactive; negative”. Also, the mutagenic call was “inactive; negative” under setting [10] and “active; positive” (Strain/Indicator: TA1538, Metabolic Activation: NONE, Method: PREINCUBATION).
Regarding `[N-]=[N+]=NCC(=O)O`, the mutagenic call (Strain/Indicator: TA1530, Metabolic Activation: NONE, Method: STANDARD PLATE) was “inactive; negative”.
As for `OCCNc1ccc(N=Nc2ccc(NCCO)cc2)cc1`, the mutagenic call was “active; positive” (Strain/Indicator: TA98, Metabolic Activation: HAMSTER, LIVER, S-9, AROCLOR 1254, Method: STANDARD PLATE); “inactive; negative” (Strain/Indicator: TA98, Metabolic Activation: NONE, Method: STANDARD PLATE); “active; positive” (Strain/Indicator: TA98, Metabolic Activation: RAT, LIVER, S-9, AROCLOR 1254, Method: PREINCUBATION); “active; positive” (Strain/Indicator: TA98, Metabolic Activation: RAT, LIVER, S-9, AROCLOR 1254, Method: STANDARD PLATE); “inactive; negative” (Strain/Indicator: TA100, Metabolic Activation: NONE, Method: STANDARD PLATE); “inactive; negative” under setting [6]. For the same molecule, the mutagenic call runs as follows: (Strain/Indicator: TA1535, Metabolic Activation: NONE, Method: STANDARD PLATE) “inactive; negative”; (Strain/Indicator: TA1535, Metabolic Activation: RAT, LIVER, S-9, AROCLOR 1254, Method: STANDARD PLATE) “inactive; negative”; (Strain/Indicator: TA1537, Metabolic Activation: NONE, Method: STANDARD PLATE) “inactive; negative”; (Strain/Indicator: TA1537, Metabolic Activation: RAT, LIVER, S-9, AROCLOR 1254, Method: STANDARD PLATE) “inactive; negative”; (Strain/Indicator: TA1538, Metabolic Activation: NONE, Method: STANDARD PLATE) “inactive; negative”; (Strain/Indicator: TA1538, Metabolic Activation: RAT, LIVER, S-9, AROCLOR 1254, Method: STANDARD PLATE) “active; positive”.
With `CN(CCC#N)c1ccc(N=Nc2ccccc2)cc1`, for the setting “Strain/Indicator: TA98, Metabolic Activation: RAT, LIVER, S-9, AROCLOR, Method: PREINCUBATION”, the mutagenic call is “active; positive”.
In the case of `Cc1ccc2c(c1)-c1cc3ccccc3c3cc4ccccc4c-2c13`, the mutagenic call (Strain/Indicator: TA100, Metabolic Activation: RAT, LIVER, S-9, 3-METHYLCHOLANTHRENE, Method: STANDARD PLATE) was “active; positive”.
On to `Cc1ccc(OP(=O)(Oc2ccc(C)cc2C)Oc2ccc(C)cc2C)c(C)c1`, for which the mutagenic call under setting [1] was “inactive; negative”; the mutagenic call under setting [2] is “inactive; negative”; the mutagenic call under setting [3] was “inactive; negative”; the mutagenic call (Strain/Indicator: TA100, Metabolic Activation: HAMSTER, LIVER, S-9, AROCLOR 1254 (10%), Method: PREINCUBATION) is “inactive; negative”; the mutagenic call (Strain/Indicator: TA100, Metabolic Activation: NONE, Method: PREINCUBATION) is “inactive; negative”; the mutagenic call under setting [5] was “inactive; negative”. The mutagenic call runs as follows: under setting [7], “inactive; negative”; under setting [8], “inactive; negative”; under setting [9], “inactive; negative”; (Strain/Indicator: TA1537, Metabolic Activation: HAMSTER, LIVER, S-9, AROCLOR 1254 (10%), Method: PREINCUBATION) “inactive; negative”; under setting [10], “inactive; negative”; (Strain/Indicator: TA1537, Metabolic Activation: RAT, LIVER, S-9, AROCLOR 1254 (10%), Method: PREINCUBATION) “inactive; negative”.
For `Nc1cc([N+](=O)[O-])c(-c2ccccc2)c([N+](=O)[O-])c1`, the mutagenic call under setting [2] was “inactive; negative” and the mutagenic call under setting [4] was “active; positive”.

The values are drawn from PubChem BioAssay AID1259407 (Chemical Carcinogenesis Research Information System (CCRIS), 2018).
